The record followed here is US7589170B1, “Synthesis of cyclic peptides” (priority 1998, dated 2009).

Data set [1] has as its system sympathetic varicosities of the mouse vas deferens. The experiment in a line: focal extracellular recording of evoked excitatory junction currents (EJC, measure of transmitter release). The format is cell-based. The procedure:
Each filled circle represents an EJC recorded during 100 minutes. Failure to record an EJC is indicated by filled circles on zero of the y-axis. The lower horizontal line indicates when the mixture of cyclic tetrapeptides (1 μM) was applied to the tissue bathing solution and the upper horizontal line when naloxone (1 μM) was added to the tissue bathing solution. […] Cyclo [Tyr-Arg-Phe-Gly] is SEQ ID NO:42.
Each bar is the average of at least 60 recordings, and the vertical lines show the standard deviation of the mean. […] Cyclo [Tyr-Arg-Phe-Gly] is SEQ ID NO:42.
Demorphin is a opioid heptapeptide isolated from the skin of South American frogs, and has the following sequence; {H-Tyr-D-Ala-Phe-Gly-Tyr-Pro-Ser-NH2; SEQ ID NO:71). The tetrapeptide analogues (H-Tyr-D-Ala-Phe-Gly-NH-Y; SEQ ID NO:29) are potent analgesics when administered by intracerebroventricular injection. In Example 3 we synthesised the cyclic tetrapeptides cyclo[Tyr-Arg-Phe-Gly] (SEQ ID NO:42) and cyclo[Tyr-Arg-D-Phe-Gly] (SEQ ID NO:42) designated WP 152 using our combination strategies.

Data set [2] is described as follows: stability to heating in DMSO. The format is physicochemical. As to conditions: 20 h at 70° C. in DMSO.
Data set [3] can be described thus: stability to hydrolysis in aqueous buffer at pH 9. The format is physicochemical.
For data set [4] the following is noted: the molecule shown is the open-chain precursor, amide bond, 15-membered ring.
Where [5] appears, read: from H-(Hnb)Tyr-Arg-(Hnb)Phe-Ala-OH, amide bond, 12-membered ring.
[6] abbreviates: amide bond, 21-membered ring, BOP/2,6-lutidine, resin, -10.0 °C, with chain assembly.
Where [7] appears, read: amide bond, DIEA, DMF, resin, with chain assembly.
Where [8] appears, read: amide bond, 16-membered ring, HATU/DIEA, DMF, resin, with chain assembly.

“Also recorded” adds a separate entry of the source. Like-named read-outs stand apart in the source and are kept apart here.

Turning to `CC(C)C[C@@H]1NC(=O)[C@H](Cc2ccccc2)NC(=O)[C@H](C)N(Cc2c(O)cccc2[N+](=O)[O-])C(=O)[C@H](C)NC(=O)[C@@H]2CCCN2C1=O` [Cyclo-[N-(6-nitro-2-hydroxybenzyl)-Ala-Phe-Leu-Pro-Ala]], the ring closure, yield after HPLC (from H-(6-nitro-2-hydroxybenzyl)Ala-Phe-Leu-Pro-Ala-OH, amide bond, 15-membered ring, BOP/DIEA, DMF, 1.0 mM, 25.0 °C) was found to be 39%.

For Cyclo-[DGCatRG], the ring closure, yield after HPLC (amide bond, 16-membered ring, DIEA, DMF, resin, with chain assembly) was found to be 11%.

Where the note is “from H-Gly-Gly-MeGly-Gly-OH, amide bond, 12-membered ring, BOP/DIEA, DMF, 1.0 mM”, `CN1CC(=O)NCC(=O)NCC(=O)NCC1=O` [H-Gly-Gly-MeGly-Gly-OH] had a ring closure, yield after HPLC of 11%.

In turn, `CC(C)C[C@@H]1NC(=O)[C@H](Cc2ccccc2)NC(=O)[C@H](C)N(Cc2cc([N+](=O)[O-])ccc2O)C(=O)[C@H](C)NC(=O)[C@@H]2CCCN2C1=O` [Cyclo-[N-(5-nitro-2-hydroxybenzyl)-Ala-Phe-Leu-Pro-Ala]] registered a ring closure, yield after HPLC (from H-(5-nitro-2-hydroxybenzyl)Ala-Phe-Leu-Pro-Ala-OH, amide bond, 15-membered ring, BOP/DIEA, DMF, 1.0 mM, 25.0 °C) of 51%.

As to `CC(C)C[C@@H]1NC(=O)[C@H](Cc2ccccc2)N(Cc2c(O)cccc2[N+](=O)[O-])C(=O)[C@H](C)NC(=O)[C@H](C)NC(=O)[C@@H]2CCCN2C1=O` [Cyclo-[N-(6-nitro-2-hydroxybenzyl)-Phe-Leu-Pro-Ala-Ala]], under “from H-(6-nitro-2-hydroxybenzyl)Phe-Leu-Pro-Ala-Ala-OH, amide bond, 15-membered ring, BOP/DIEA, DMF, 1.0 mM, 25.0 °C”, the ring closure, yield after HPLC came out at 44%.

Consider `C[C@@H]1NC(=O)[C@H](Cc2ccccc2)N(Cc2c(O)cccc2[N+](=O)[O-])C(=O)[C@H](CCCNC(=N)N)NC(=O)[C@H](Cc2ccc(O)cc2)N(Cc2c(O)cccc2[N+](=O)[O-])C1=O` [cyclo-[(Hnb)Tyr-Arg-(Hnb)Phe-Ala]], for which the ring closure, yield after HPLC under setting [5] was determined as 13%.

`CN1CC(=O)NCC(=O)NCC(=O)NCC1=O` [H-Gly-MeGly-Gly-Gly-OH] gave a ring closure, yield after HPLC (from H-Gly-MeGly-Gly-Gly-OH, amide bond, 12-membered ring, BOP/DIEA, DMF, 1.0 mM) of 1%.

Under setting [5], `C[C@@H]1NC(=O)[C@H](Cc2ccccc2)N(Cc2c(O)cccc2[N+](=O)[O-])C(=O)[C@H](CCCNC(=N)N)NC(=O)[C@H](Cc2ccc(O)cc2)N(Cc2c(O)cccc2[N+](=O)[O-])C1=O` [cyclo-[(Hnb)Tyr-Arg-(Hnb)Phe-(D)Ala]] returned a ring closure, yield after HPLC of 18%.

For `CC[C@H](C)[C@@H]1NC(=O)[C@H](C)NC(=O)[C@H](CC(C)C)NC(=O)[C@H](CO)NC(=O)[C@H](CC(N)=O)NC(=O)[C@H](Cc2ccccc2)NC(=O)[C@@H]2CCCN2C1=O` [Cyclo-(Pro-Phe-Asn-Ser-Leu-Ala-Ile)], where the note is “from H-Asn-Ser-Leu-Ala-Ile-Pro-Phe-OH, amide bond, 21-membered ring, BOP/DIPEA, DMF, 1.0 mM, -10.0 °C”, the ring closure, yield after HPLC came to 48%.

As for `C=CCN1CC[C@]23c4c5ccc(O)c4O[C@H]2C(=O)CC[C@@]3(O)[C@H]1C5` [naloxone, reference compound], the “effect of naloxone on the EJC reduction caused by the cyclic tetrapeptide mixture” value in data set [1] (naloxone 1 μM added to the tissue bathing solution with the tetrapeptide mixture (1 μM)) was “inhibits this effect; also recorded: reversed”.

cyclo-(Pro-Phe-Asn-Ser-Leu-Ala-Ile): the ring closure, yield after HPLC under setting [6] is 25%.

As to `CN1CC(=O)NCC(=O)N(C)CC(=O)N(C)CC1=O` [H-Gly-MeGly-MeGly-MeGly-OH], the ring closure, yield after HPLC (from H-Gly-MeGly-MeGly-MeGly-OH, amide bond, 12-membered ring, BOP/DIEA, DMF, 1.0 mM) was 5%.

Where the note is “other bond, 18-membered ring, BOP/DIEA, DMF, 1.0 mM, -10.0 °C”, Cyclo-(SCH2CH2-Gly-Arg-Pro-Phe-Gly) gave a ring closure, yield after HPLC of 31%.

The molecule `C[C@@H]1NC(=O)[C@H](Cc2ccccc2)N(Cc2c(O)cccc2[N+](=O)[O-])C(=O)[C@H](CCCNC(=N)N)NC(=O)[C@H](Cc2ccc(O)cc2)N(Cc2c(O)cccc2[N+](=O)[O-])C1=O` [Cyclo-[(Hnb)Tyr-Arg-(Hnb)Phe-Ala]] returned a ring closure, yield after HPLC (from H-(Hnb)Tyr-Arg-(Hnb)Phe-Ala-OH?, amide bond, 12-membered ring) of 60%.

As to “cyclo-[(Hnb)Tyr-Arg-(Hnb)Phe-(D)Ala] [Product A]”, the stability to heat result in data set [2] was “Unstable to heat”. In data set [3], the stability to hydrolysis entry was “Stable to hydrolysis”.

Under setting [6], Cyclo-(Pro-Phe-Asn-Ser-Leu-Ala-Ile) showed a ring closure, yield after HPLC of 10%.

In turn, `CN1CC(=O)NCC(=O)NCC(=O)NCC1=O` [H-Gly-Gly-Gly-MeGly-OH] registered a ring closure, yield after HPLC (from H-Gly-Gly-Gly-MeGly-OH, amide bond, 12-membered ring, BOP/DIEA, DMF, 1.0 mM) of 8%.

The molecule `CN1CC(=O)NCC(=O)NCC(=O)N(C)CC1=O` [H-Gly-MeGly-MeGly-Gly-OH] registered a ring closure, yield after HPLC (from H-Gly-MeGly-MeGly-Gly-OH, amide bond, 12-membered ring) of 13%.

In the case of cyclo-[DAmbGRG], the ring closure, yield after HPLC under setting [7] came out at 5%.

As to cyclo-[D-G-Amb-R-G], the ring closure, yield after HPLC (amide bond, DIPEA, DMF, resin, with chain assembly) turned out to be 49%.

Under setting [7], cyclo-[DGAmbRG] had a ring closure, yield after HPLC of 7.6%.

Consider H-Ala-Phe-Leu-Pro-Ala-OH?, for which, in data set [4] (BOP/DIEA), the ring closure, conversion was 0%.

As for `C[C@H]1C(=O)N[C@@H](Cc2ccc(O)cc2)C(=O)N(Cc2c(O)cccc2[N+](=O)[O-])[C@@H](CCCNC(=N)N)C(=O)N[C@@H](Cc2ccccc2)C(=O)N1Cc1c(O)cccc1[N+](=O)[O-]` [H-(Hnb)Ala-Tyr-(Hnb)Arg-Phe-OH], the ring closure, yield after HPLC (from H-(Hnb)Ala-Tyr-(Hnb)Arg-Phe-OH, amide bond, 12-membered ring, BOP/DIEA, DMF, 1.0 mM, 25.0 °C) amounted to 53%.

In the case of Cyclo-[Arg-Gly-Asp-Gly-β-Ala], the ring closure, yield after HPLC under setting [8] amounted to 9%.

`COc1ccc(CN2CC(=O)NCC(=O)NCC(=O)N(Cc3ccc(OC)cc3O)CC2=O)c(O)c1` [H-Gly-(HMB)Gly-(HMB)Gly-Gly-OH] displayed a ring closure, yield after HPLC (from H-Gly-(HMB)Gly-(HMB)Gly-Gly-OH, amide bond, 12-membered ring, BOP/DIEA, DMF, 1.0 mM) of 16%.

In turn, `CC[C@H](C)[C@@H]1NC(=O)[C@H](C)NC(=O)[C@H](CC(C)C)NC(=O)[C@H](CO)NC(=O)[C@H](CC(N)=O)NC(=O)[C@H](Cc2ccccc2)NC(=O)[C@@H]2CCCN2C1=O` [cyclo-(Pro-Phe-Asn-Ser-Leu-Ala-Ile)] had a ring closure, yield after HPLC (from H-Pro-Phe-Asn-Ser-Leu-Ala-Ile-OH, amide bond, 21-membered ring, BOP/DIPEA, DMF, -10.0 °C) of 67%.

Consider Cyclo-[Leu-Asp-Val-Gly-β-Ala], for which the ring closure, yield after HPLC under setting [8] stood at 18%.

On to `N=C(N)NCCC[C@H]1C(=O)N[C@@H](Cc2ccccc2)C(=O)NCC(=O)N(Cc2c(O)cccc2[N+](=O)[O-])[C@@H](Cc2ccc(O)cc2)C(=O)N1Cc1c(O)cccc1[N+](=O)[O-]` [Cyclo-[(Hnb)Tyr-(Hnb)Arg-Phe-Gly]], for which the ring closure, yield after HPLC (from H-(Hnb)Tyr-(Hnb)Arg-Phe-Gly-OH?, amide bond, 12-membered ring, BOP/DIEA, DMF, 1.1 mM, 25.0 °C) turned out to be 61%.

With “cyclo-[(Hnb)Tyr-Arg-(Hnb)Phe-Ala] [Product B]”, the stability to heat result in data set [2] was “Stable to heat”. Also, in data set [3], the stability to hydrolysis entry is given as “Stable”.

With `N=C(N)NCCC[C@H]1C(=O)N[C@@H](Cc2ccccc2)C(=O)N(Cc2c(O)cccc2[N+](=O)[O-])CC(=O)N[C@@H](Cc2ccc(O)cc2)C(=O)N1Cc1c(O)cccc1[N+](=O)[O-]` [H-(Hnb)Gly-Tyr-(Hnb)Arg-Phe-OH?], the ring closure, yield after HPLC (from H-(Hnb)Gly-Tyr-(Hnb)Arg-Phe-OH?, amide bond, 12-membered ring, BOP/DIEA, DMF, 1.18 mM) came out at 68%.

In the case of `CN1CC(=O)NCC(=O)NCC(=O)N(C)CC1=O` [H-Gly-Gly-MeGly-MeGly-OH], the ring closure, yield after HPLC (from H-Gly-Gly-MeGly-MeGly-OH, amide bond, 12-membered ring) turned out to be 18%.

In turn, H-Ala-Phe-Leu-Pro-Ala-O-linker-resin? displayed a ring closure, conversion in data set [4] (resin) of 0%.

Take Cyclo-[Phe-Lys-Trp-Gly-β-Ala]: the ring closure, yield after HPLC under setting [8] came to 15%.

Under “from H-Gly-MeGly-Gly-MeGly-OH, amide bond, 12-membered ring, BOP/DIEA, DMF, 1.0 mM”, `CN1CC(=O)NCC(=O)N(C)CC(=O)NCC1=O` [H-Gly-MeGly-Gly-MeGly-OH] showed a ring closure, yield after HPLC of 2%.

As to “cyclo[Tyr-Arg-Phe-Gly] (SEQ ID NO:42) and cyclo[Tyr-Arg-D-Phe-Gly] (SEQ ID NO:42) [WP 152]”, the “EJC amplitude and frequency” value in data set [1] (1 μM in tissue bathing solution, EJCs recorded during 100 minutes (FIG. 10)) was “greatly reduces the EJC amplitude and frequency”. For the same molecule, in data set [1] (1 μM, following 20 minutes of exposure, each bar average of at least 60 recordings (FIG. 11)), the “average excitatory junction current (EJC) amplitude and frequency” value is given as “highly significant decrease”. Besides, in data set [1] (FIGS. 10 and 11, mixture of compounds), the transmitter release result is “greatly reduces transmitter release”. Besides, in data set [1] (one or both of the compounds, strongly suggested, not measured directly), the “opiate agonism inferred from reversal by naloxone” value is given as “potent μ-opiate agonists”.

For the setting “from H-Gly-Gly-Gly-Gly-OH, amide bond, 12-membered ring, BOP/DIEA, DMF, 1.0 mM”, `O=C1CNC(=O)CNC(=O)CNC(=O)CN1` [H-Gly-Gly-Gly-Gly-OH] yielded a ring closure, yield after HPLC of 1%.
